Source: PubChem BioAssay (NCI)
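The concentration for 50% growth inhibition is given as GI50. TGI: concentration producing complete growth inhibition.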

Experiments:
Test in all cases: NCI anticancer screen, dose series, 384-well format
[1] = test system: A498 renal
[2] = test system: A549 NSCLC
[3] = test system: ACHN renal
[4] = test system: BT-549 breast
[5] = test system: CAKI-1 renal
[6] = test system: COLO 205 colon
[7] = test system: DU-145 prostate
[8] = test system: EKVX NSCLC
[9] = test system: HCC-2998 colon
[10] = test system: HCT-116 colon
[11] = test system: HCT-15 colon
[12] = test system: HL-60(TB) leukemia
[13] = test system: HOP-62 NSCLC
[14] = test system: HS 578T breast
[15] = test system: IGROV1 ovarian
[16] = test system: KM12 colon
[17] = test system: LOX IMVI melanoma
[18] = test system: M14 melanoma
[19] = test system: MALME-3M melanoma
[20] = test system: MCF7 breast
[21] = test system: MDA-MB-231 breast
[22] = test system: MDA-MB-435 melanoma
[23] = test system: MDA-MB-468 breast
[24] = test system: MOLT-4 leukemia
[25] = test system: NCI-H226 lung
[26] = test system: NCI-H23 lung
[27] = test system: NCI-H322M lung
[28] = test system: NCI-H460 NSCLC
[29] = test system: NCI-H522 lung
[30] = test system: NCI/ADR-RES ovarian
[31] = test system: OVCAR-3 ovarian
[32] = test system: OVCAR-4 ovarian
[33] = test system: OVCAR-5 ovarian
[34] = test system: PC-3 prostate
[35] = test system: RPMI-8226 leukemia
[36] = test system: SF-268 CNS
[37] = test system: SF-295 CNS
[38] = test system: SF-539 CNS
[39] = test system: SK-MEL-28 melanoma
[40] = test system: SK-MEL-5 melanoma
[41] = test system: SK-OV-3 ovarian
[42] = test system: SN12C renal
[43] = test system: SNB-75 CNS
[44] = test system: SR leukemia
[45] = test system: TK-10 renal
[46] = test system: U251 glioblastoma
[47] = test system: UACC-257 melanoma
[48] = test system: UACC-62 melanoma

CC(C)(C)c1cnc(CSc2cnc(NC(=O)C3CCNCC3)s2)o1
GI50 [1]: 240 nM | TGI [1]: 627 nM | GI50 [2]: 101 nM | TGI [2]: > 100000 nM | GI50 [3]: 950 nM | TGI [3]: 34100 nM | GI50 [4]: 114 nM | TGI [4]: 277 nM | GI50 [5]: 394 nM | TGI [5]: > 100000 nM | GI50 [6]: 25 nM | TGI [6]: 62.8 nM | GI50 [7]: 42 nM | TGI [7]: 299 nM | GI50 [8]: 204 nM | TGI [8]: 1070 nM | GI50 [9]: 51.8 nM | TGI [9]: 208 nM | GI50 [10]: 32.3 nM | TGI [10]: > 100000 nM | GI50 [11]: 2450 nM | TGI [11]: > 100000 nM | GI50 [12]: 14.3 nM | TGI [12]: 27.5 nM | GI50 [13]: 66 nM | TGI [13]: 330 nM | GI50 [14]: 136 nM | TGI [14]: 431 nM | GI50 [15]: 53.1 nM | TGI [15]: 566 nM | GI50 [16]: 35 nM | TGI [16]: 13700 nM | GI50 [17]: 24.1 nM | TGI [17]: 59.9 nM | GI50 [18]: 166 nM | TGI [18]: 425 nM | GI50 [19]: 123 nM | TGI [19]: 264 nM | GI50 [20]: 29.8 nM | TGI [20]: 16900 nM | GI50 [21]: 62.4 nM | TGI [21]: > 100000 nM | GI50 [22]: 113 nM | TGI [22]: 322 nM | GI50 [23]: 50.8 nM | TGI [23]: 176 nM | GI50 [24]: 37.4 nM | TGI [24]: 104 nM | GI50 [25]: 188 nM | TGI [25]: 680 nM | GI50 [26]: 78.3 nM | TGI [26]: 212 nM | GI50 [27]: 38.1 nM | TGI [27]: 159 nM | GI50 [28]: 68.6 nM | TGI [28]: 256 nM | GI50 [29]: 147 nM | TGI [29]: 306 nM | GI50 [30]: 26300 nM | TGI [30]: > 100000 nM | GI50 [31]: 46.4 nM | TGI [31]: 221 nM | GI50 [32]: 63.7 nM | TGI [32]: 368 nM | GI50 [33]: 25.2 nM | TGI [33]: 59.4 nM | GI50 [34]: 70.9 nM | TGI [34]: 397 nM | GI50 [35]: 27.3 nM | TGI [35]: 70.4 nM | GI50 [36]: 41 nM | TGI [36]: 264 nM | GI50 [37]: 373 nM | TGI [37]: 27100 nM | GI50 [38]: 35.4 nM | TGI [38]: 134 nM | GI50 [39]: 120 nM | TGI [39]: 285 nM | GI50 [40]: 109 nM | TGI [40]: 249 nM | GI50 [41]: 192 nM | TGI [41]: > 100000 nM | GI50 [42]: 38.4 nM | TGI [42]: 186 nM | GI50 [43]: 124 nM | TGI [43]: 278 nM | GI50 [44]: 12.1 nM | TGI [44]: 24.6 nM | GI50 [45]: 232 nM | TGI [45]: 799 nM | GI50 [46]: 107 nM | TGI [46]: 547 nM | GI50 [47]: 166 nM | TGI [47]: 350 nM | GI50 [48]: 47.3 nM | TGI [48]: 191 nM
